The results in this text go back to publication PMC4311893 (ChemMedChem, 2014).

In assay [1] the target is T1, human arginase-I (Mn-hArgI) (Homo sapiens, UniProt P05089).
T1 sequence (P05089 1-322): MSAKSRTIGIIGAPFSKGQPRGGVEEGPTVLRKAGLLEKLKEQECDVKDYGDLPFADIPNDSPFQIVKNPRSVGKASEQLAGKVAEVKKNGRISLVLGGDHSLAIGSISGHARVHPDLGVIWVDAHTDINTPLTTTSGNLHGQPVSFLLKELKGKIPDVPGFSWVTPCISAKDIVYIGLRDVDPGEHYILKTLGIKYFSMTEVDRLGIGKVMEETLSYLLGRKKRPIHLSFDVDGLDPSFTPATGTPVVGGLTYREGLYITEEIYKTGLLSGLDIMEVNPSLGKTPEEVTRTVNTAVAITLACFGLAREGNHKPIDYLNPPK
The experiment in a line: urea formation assay, IC50 […] with Cheng-Prusoff Ki. It counts as biochemical.

The target of assay [2] is dimethylarginine dimethylaminohydrolase-1 (DDAH-1) (Homo sapiens, UniProt O94760). The assay is described as follows: time-dependent inactivation kinetics in competition with ADMA. It counts as biochemical. Conditions: read-out: Ki.
Chain of dimethylarginine dimethylaminohydrolase-1 (DDAH-1) (O94760 whole entry): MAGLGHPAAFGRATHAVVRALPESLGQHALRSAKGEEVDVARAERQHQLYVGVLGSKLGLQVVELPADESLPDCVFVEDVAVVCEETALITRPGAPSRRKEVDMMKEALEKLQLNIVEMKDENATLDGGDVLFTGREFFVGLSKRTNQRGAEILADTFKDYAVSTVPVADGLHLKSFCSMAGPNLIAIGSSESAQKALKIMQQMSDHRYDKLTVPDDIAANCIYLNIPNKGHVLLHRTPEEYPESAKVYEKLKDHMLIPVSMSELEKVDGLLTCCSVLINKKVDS

One may read the Ki as a dissociation constant, usually derived from enzyme kinetics or from competition with a known ligand. With `N=C(CCl)NCCC[C@H](N)C(=O)O` [Cl-NIO, N^5-(1-imino-2-chloroethyl)-L-ornithine], the Ki in assay [1] stood at 3.1 mM. Besides, in assay [2], the KI (inactivation) was determined as 0.0013 ± 0.0006 mM.
